In paper PMC9601613, “Development of a Fluorescence Polarization Assay for Multi-Determination of 10 Aminoglycosides in Pork Muscle Sample Based on Ribosomal Protein S12 and Studying Its Recognition Mechanism” (Foods, 2022):

How the values were obtained:
[1] = target: T1, RpsL12 (ribosomal protein S12) (Lysinibacillus sphaericus, UniProt B1HMZ3); experiment: biochemical; set-up: surface plasmon resonance, binding kinetics and equilibrium dissociation constant of aminoglycosides to RpsL12; conditions: for kon: read-out: Ka; for koff: read-out: Kd
T1 construct: gene rpsL; isolated ribosomal protein without rRNA; 426 bp gene in pET32a(+), purified from soluble fraction of E. coli BL21
T1 sequence (B1HMZ3 1-139): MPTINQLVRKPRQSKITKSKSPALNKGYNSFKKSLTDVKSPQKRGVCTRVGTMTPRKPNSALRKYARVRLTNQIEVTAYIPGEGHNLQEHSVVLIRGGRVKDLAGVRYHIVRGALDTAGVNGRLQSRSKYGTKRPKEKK
Experimental: The affinities of the RpsL12 for the 10 AGs were determined by using the surface plasmon resonance technique (SPR), and the assay procedures were performed according to our recent report (see Supplementary Materials). During the SPR test, the association constant (Ka), dissociation constant (Kd), and equilibrium dissociation constant (KD = Kd/Ka) for the 10 AGs were determined. Furthermore, the absolute affinity constants (KA=Log2(KD)) for the 10 AGs were also calculated, which were used to conveniently compare their affinities. For confirmation of the molecular docking results, the receptor affinities for the 10 drugs were also determined by SPR. […] The recognition mechanisms of RpsL12 protein for AGs reported in the present study were more comprehensive than the previous report. The recombinant plasmids were synthesized at Sangon Biotech Co., Ltd. (Shanghai, China) by inserting the RpsL12 gene of Lysinibacillus sphaericus (GenBank ID: AHC30887.1) into the express vector pET32a(+). The plasmids containing the express vector pET32a-RpsL12 were transformed into BL21 (D3) for acculturation, and the gene products in the positive colonies were characterized by a polymerase chain reaction and DNA sequencing. Then the RpsL12 was expressed with the same procedures as those described in our recent report (see Supplementary Materials), and the obtained product was analyzed with SDS-PAGE electrophoresis and Western blotting.

[2] = target: T1, RpsL12 (ribosomal protein S12); experiment: surface plasmon resonance; format: binding; conditions: log2-transformed affinity, not an association constant in 1/M; sign as printed; KD itself only in supplement
From the text: surface plasmon resonance on RpsL12 (ribosomal protein S12)

[3] = target: T1, RpsL12 (ribosomal protein S12); experiment: fluorescence polarization competition with tracer STR-FITC; format: binding
From the text: fluorescence polarization competition with tracer STR-FITC on RpsL12 (ribosomal protein S12)

**Q.** What does the source list for `CNC(C)[C@@H]1CC[C@@H](N)[C@@H](O[C@H]2[C@H](O)[C@@H](O[C@H]3OC[C@](C)(O)[C@H](NC)[C@H]3O)[C@H](N)C[C@@H]2N)O1` (stereo partly drawn) [gentamicin]?
**A.** Kd [1]: 4720 nM; kon [1]: 2180 M⁻¹ s⁻¹; koff [1]: 0.0103 s⁻¹

**Q.** Which results are given for `CN[C@@H]1[C@H](O[C@H]2[C@H](O[C@H]3[C@H](O)[C@@H](O)[C@H](N=C(N)N)[C@@H](O)[C@@H]3N=C(N)N)O[C@@H](C)[C@]2(O)C=O)O[C@@H](CO)[C@H](O)[C@H]1O` [streptomycin]?
**A.** KA [2]: 24.670; IC50 [3]: 102 nM; Kd [1]: 37.5 nM; kon [1]: 8200 M⁻¹ s⁻¹; koff [1]: 0.000307 s⁻¹

**Q.** How did the kon [1] turn out when `CCNC1CC(N)C(OC2OC(CN)=CCC2N)C(O)C1OC1OCC(C)(O)C(NC)C1O` (stereo not drawn) [netimicin] was run?
**A.** 37.1 M⁻¹ s⁻¹

**Q.** What about the koff [1] of the same compound?
**A.** 0.00141 s⁻¹

**Q.** Which KA [2] does the source give for `CCN[C@@H]1C[C@H](N)[C@@H](O[C@H]2O[C@H](CN)CC[C@H]2N)[C@H](O)[C@H]1O[C@H]1OC[C@](C)(O)[C@H](NC)[C@H]1O` [etimicin] here?
**A.** 11.358

**Q.** What about the IC50 [3] of the same compound?
**A.** 129 nM

**Q.** What about the Kd [1] of the same compound?
**A.** 381000 nM

**Q.** And the kon [1]?
**A.** 51.2 M⁻¹ s⁻¹

**Q.** And the koff [1]?
**A.** 0.0195 s⁻¹

**Q.** What does the source list for `NC[C@@H]1O[C@H](O[C@H]2[C@@H](O)[C@H](O[C@@H]3[C@@H](O)[C@H](N)C[C@H](N)[C@H]3O[C@H]3O[C@H](CN)[C@@H](O)[C@H](O)[C@H]3N)O[C@@H]2CO)[C@H](N)[C@@H](O)[C@@H]1O` [neomycin]?
**A.** KA [2]: 25.997; IC50 [3]: 78.6 nM; Kd [1]: 14.9 nM; kon [1]: 3150 M⁻¹ s⁻¹; koff [1]: 4.7e-05 s⁻¹

**Q.** Which KA [2] does the source give for `NC[C@@H]1O[C@H](O[C@H]2[C@@H](O)[C@H](O[C@@H]3[C@@H](O)[C@H](N)C[C@H](N)[C@H]3O[C@H]3O[C@H](CO)[C@@H](O)[C@H](O)[C@H]3N)O[C@@H]2CO)[C@H](N)[C@@H](O)[C@@H]1O` [paromomycin] here?
**A.** 23.851

**Q.** What about the IC50 [3] of the same compound?
**A.** 117 nM

**Q.** What about the Kd [1] of the same compound?
**A.** 66.1 nM

**Q.** What about the kon [1] of the same compound?
**A.** 263000 M⁻¹ s⁻¹

**Q.** And the koff [1]?
**A.** 0.0174 s⁻¹

**Q.** Which KA [2] does the source give for `CN[C@@H]1[C@H](O)[C@H](NC)[C@H]2O[C@@]3(O)C(=O)C[C@@H](C)O[C@H]3O[C@@H]2[C@H]1O` [spectinomycin] here?
**A.** 23.900

**Q.** And the IC50 [3]?
**A.** 188 nM

**Q.** What about the Kd [1] of the same compound?
**A.** 63.9 nM

**Q.** And the kon [1]?
**A.** 211000 M⁻¹ s⁻¹

**Q.** And the koff [1]?
**A.** 0.0135 s⁻¹

**Q.** Which results are given for `CNC[C@@H]1CC[C@@H](N)[C@@H](O[C@H]2[C@H](O)[C@@H](O[C@H]3OC[C@](C)(O)[C@H](NC)[C@H]3O)[C@H](N)C[C@@H]2N)O1` [micronomicin]?
**A.** KA [2]: 14.666; IC50 [3]: 137 nM; Kd [1]: 38500 nM; kon [1]: 141 M⁻¹ s⁻¹; koff [1]: 0.00543 s⁻¹

**Q.** With `CN[C@@H]1[C@@H](O[C@H]2O[C@H](CO)[C@@H](N)[C@H](O)[C@H]2O)O[C@H]2C[C@@H](N)[C@@H](O[C@H]3[C@H](O)[C@@H](O)[C@H](N)C[C@@H]3N)O[C@@H]2[C@@H]1O` [apramycin] as the compound, how does the kon [1] read?
**A.** 20200 M⁻¹ s⁻¹

**Q.** What about the koff [1] of the same compound?
**A.** 0.000281 s⁻¹

**Q.** With `NCC[C@H](O)C(=O)N[C@@H]1C[C@H](N)[C@@H](O[C@H]2O[C@H](CN)[C@@H](O)[C@H](O)[C@H]2O)[C@H](O)[C@H]1O[C@H]1O[C@H](CO)[C@@H](O)[C@H](N)[C@H]1O` [amikacin] as the compound, how does the KA [2] read?
**A.** 24.487

**Q.** What about the IC50 [3] of the same compound?
**A.** 116 nM

**Q.** What about the Kd [1] of the same compound?
**A.** 42.5 nM

**Q.** And the kon [1]?
**A.** 1690 M⁻¹ s⁻¹

**Q.** What about the koff [1] of the same compound?
**A.** 7.2e-05 s⁻¹
